For `Cn1cc2c(c1-c1ccccc1)C(=O)c1ccccc1C2=O`, the melting point (in general, the temperature of the solid-liquid transition) lay within 268 to 271 °C.
Then `CCCCc1nc(SCC)c(CO)[nH]1`, with 128 °C; and `O=C(SCCCN1C(=O)NCC1c1ccccc1)c1ccccc1` (stereo not given), with 112 to 115 °C; and `N#Cc1csc2c1CCN(C(=O)C(F)(F)F)CC2c1ccccc1` (stereo not given), with 107 °C.
Next, `CC1(C)C(=O)Nc2cc3[nH]c(-c4ccc(O)cc4)nc3cc21`: 240 °C; `Cc1ccccc1NC(=O)CN1CC2CCC(C1)N2S(=O)(=O)c1ccccc1Cl`: 170 to 171 °C.
Compound `CC1(C)Oc2ccc(CNc3ccc(Cl)cc3)cc2OC1=O` had a melting point of 97 to 98 °C.
As to `ON=C1CCCCCCC1Cc1ccccc1` (stereo not given), the melting point lay within 117 to 119 °C.
Take `COc1cc(C)c(C=O)c(OC)c1OC`: the melting point was in the range of 55 to 57 °C.
Next, `CC(=O)CN1CCc2c(c(=O)oc3cc(C)ccc23)C1`: 128 to 129 °C; `Cn1nc(-c2cccnc2)c2c(C(F)(F)F)cc(-c3cccc(CN4CCOCC4)c3)nc21`: 155 °C; `O=C1CC=CC(C(=O)O)C1` (stereo not given): 98 to 101 °C.
Next, `O=C(CNCCO)Nc1cccc([N+](=O)[O-])c1`: 145 to 147 °C.
Regarding `O=C1CN2Cc3c(ccc(Cl)c3Cl)N=C2N1`, the melting point was above 300 °C.
In turn, `CN1C(=O)S/C(=C\c2cn(-c3ccccc3)nc2OCc2ccccc2)C1=O` had a melting point of 226 to 227 °C.
Next, `C=C1CCCCC1(C(=S)NC)c1cccnc1` (stereo not given): 106 to 108 °C; `CS(=O)c1ccc(-c2coc3ccc(-c4nnc(N)o4)cc23)cc1` (stereo not given): 284 to 285 °C; `CCc1cn2ccccc2c1S(=O)(=O)c1cc(C)c(OS(=O)(=O)c2ccc(C)cc2)c(C)c1`: 161 °C.
Then `O=CC1=C(Cl)C(=CO)CCC1`, with 127 °C; and `O=S(=O)(c1ccc(F)cc1)N1CCOCC1`, with 106 to 107 °C; and `CCCOc1ccccc1-c1nc2cc3c(cc2c(=O)[nH]1)NCN3Cc1ccc(OC)cc1`, with 130 to 131 °C.
Then `CC(NS(=O)(=O)c1cc(C(=O)CCl)ccc1Cl)c1ccccc1` (stereo not given), with 127 °C.
Regarding `COC(=O)C[C@H]1C(=O)OCN1C(=O)OCc1ccccc1`, the melting point was in the range of 90 to 93 °C.
Regarding `O=C(NC1CCC(CCN2CCN(c3nccc4c3OCC4)CC2)CC1)C1CCOC1` (stereo not given), the melting point was 195 °C.
The compound `CC(C)C(c1cncnc1C=NO)N(C)C(=O)Cc1ccccc1` (stereo not given) gave a melting point of 171 to 172 °C.
Then `Oc1ccc2c(c1)COc1c-2cc2ccc(O)cc2c1-c1cc(Cl)cc(Cl)c1`, with 252 to 255 °C.
On to `COc1ccc(C(=O)Nc2ccccc2)cc1NS(=O)(=O)c1ccc(C(F)(F)F)cc1`, for which the melting point was 197 to 198 °C.
As to `Clc1ccc(Nc2nnc(Cc3ccncc3)c3c2CCCC3)cc1`, the melting point fell in the range of 258 to 261 °C.
Then `[N-]=[N+]=NC1CCc2ccccc2N(c2ccccc2)C1=O` (stereo not given), with 141 to 143 °C.
Regarding `COC1=CC(=O)CN(C)C1`, the melting point fell in the range of 71 to 72 °C.
As to `O=C1NCc2c1cc1ccc3c(c1c2-c1ccc2c(c1)OCO2)OCC3`, the melting point is 275 to 277 °C.
For the compound `CC(C)(C)c1cc2c(cc1O)OC(C(=O)O)=CO2`, the melting point turned out to be 144 °C.
Then `Cc1c([N+](=O)[O-])ccc2c1ccn2C`, with 120 to 123 °C; and `COCOc1ccc(-n2cc(C(=O)O)c(=O)cc2-c2ccc(N(C)C)cc2)cc1`, with 150 to 152 °C.
Consider `O=C(Nc1cccc([N+](=O)[O-])c1)C(Br)CCBr` (racemic), for which the melting point was 75 to 76 °C.
Then `C=CCNC(=O)C1CCc2cc(C3CCCCC3)ccc2O1` (stereo not given), with 93 to 94 °C; and `COc1ccc(Nc2nc(-c3ccc(-c4ccccc4)cc3)cs2)nc1`, with 212 to 213 °C; and `CC(=O)NC1CCc2c(C)cc(C)c(O)c21` (stereo not given), with 131 to 132 °C.
`CC(=O)NC(C)Cc1cc2c(cc1CC(=O)O)OCO2` (stereo not given): the melting point fell in the range of 195 to 197 °C.
Next, `CON(C)C(=O)c1c(COC2CCCCO2)noc1-c1ccccc1Cl` (stereo not given): 51 to 56 °C.
Compound `O=C(CCCN1C(=O)c2ccccc2C1=O)N1CCC(C2c3ncc(Br)cc3CCc3cc(Cl)cc(Br)c32)CC1` (single isomer, unassigned; (+)) displayed a melting point of 100 to 102 °C.
Regarding `CCCC(=O)NCCc1c[nH]c2ccc3c(c12)CCCO3`, the melting point lay in the range of 91 to 93 °C.
Next, `COc1ccc(-c2noc(C(F)F)c2-c2ccc(S(N)(=O)=O)cc2)cc1`: 182 to 183 °C; `CCc1cc(NC(=O)C(CS)Cc2ccccc2)cc(C(=O)O)c1` (stereo not given): 159 to 160 °C; `O=C(O)c1ccc(-n2c(-c3ccccc3)cc3c2CCCC3)cc1O`: 193 to 195 °C.
On to `CC(=O)NCc1ccc2c(c1)[C@@H](N1CCCC1=O)[C@H](O)C(C)(C)O2` (relative stereo), for which the melting point was 206 to 208 °C.
Then `O=C(O)c1[nH]c(-c2ccccc2)cc1-c1ccc(O)cc1`, with 192 to 193 °C; and `CSc1ccc(C(N)=S)cc1`, with 176 to 178 °C.
Then `O=C(O)c1cn(C2CC2)c2c(F)c(N3CC(n4ccnn4)C3)c(F)cc2c1=O`, with 315 to 316 °C; and `Brc1ccc2c(c1)N=C(N1CCSCC1)c1cccc3c1N2CC3`, with 165 to 167 °C; and `COc1cc2ncnc(N3CCC(CCBr)CC3)c2cc1OC`, with 191 °C.
Then `CC(=O)OC(CF)c1sccc1S(N)(=O)=O` (stereo not given), with 97 to 98 °C; and `CSC1C(=O)Nc2c(-c3ccccc3)cccc21` (stereo not given), with 164 to 166 °C.
With `CC(C)(CO)Cc1cccc(C(O)c2cccc(CC(C)(C)CO)c2)c1`, the melting point is 98 to 99 °C.
`COC(=O)c1ccc(OC)c(NC(=O)C[C@H]2O[C@H](c3cccc(OC)c3OC)c3cc(Cl)ccc3N(CC(C)(C)COC(C)=O)C2=O)c1` showed a melting point of 138 to 140 °C.
The compound `Oc1ccc(-c2nnc(CSCCOc3ccccc3)n2-c2ccccc2)cc1` came in with a melting point of 214 to 216 °C.
Take `CC(C)(C)C1=CC(=Nc2ccc(C(=O)O)cc2)C=C(C(C)(C)C)C1=O`: the melting point fell in the range of 305 to 309 °C.
Next, `CCCC1(OC(C)=O)CCC2C3CCC4CC(=O)CC(C)C4(C)C3CCC21C` (stereo not given): 128 to 129 °C; `COc1ccc(-c2nn(CC3CC3)c(=O)cc2-c2ccncc2)cc1`: 128 to 130 °C.
Take `O=S(=O)(CC(Cl)(Cl)Cl)c1cc(Cl)ccc1Cl`: the melting point came to 96 °C.
The compound `Cc1sc(Cl)cc1C1(c2cccc(-c3cncnc3)c2)N=C(N)N(C)C1=O` (stereo not given) yielded a melting point of 141 to 149 °C.
Next, `CC(C)(C)OC(=O)c1ncn2c1[C@@H]1CCCN1C(=O)c1ccccc1-2`: 237 to 238 °C; `O=C(O)C(Cc1cccnc1)C(=O)O`: 128 to 129 °C; `Nc1nnc(-c2ccnc3[nH]c(CCc4ccccc4)cc23)o1`: 234 to 235 °C.
Then `NS(=O)(=O)Oc1ccc(Cl)c(Cl)c1`, with 121 to 123 °C.
Next, `COc1cc(C(=O)c2nc(NC(C)=O)c3ccccn23)ccc1[N+](=O)[O-]`: 256 °C; `O=S(=O)(Cc1ccccc1)On1nnc2ccccc21`: 65 to 67 °C.
Regarding `Cc1nc(-c2cc3c4ccccc4n(CCCCl)c3cn2)no1`, the melting point was 130 to 135 °C.
Then `COC(=O)c1cc(O)c2ccc(OCc3ccccc3)cc2c1`, with 179 to 180 °C; and `CC(Oc1ccc(Cl)cc1)c1ccnc2ncnn12` (stereo not given), with 98 to 99 °C.
Then `O=c1oc(-c2cccc(-c3ccccc3)c2)cc(O)c1SCCc1ccccc1`, with 93 to 94 °C.
Next, `CCOCCNS(=O)(=O)NC(=O)OCc1ccc(OCCOC)cc1Oc1ncc(C(F)(F)F)cc1Cl`: 142 to 143 °C.
Turning to `COc1cc(C(C)=O)ccc1OC/C=C/CN1CCC(c2noc3cc(F)ccc23)CC1`, the melting point was 57 to 59 °C.
Then `CC(=O)Nc1ccc(-c2cn(-c3nc(-c4ccc(C(F)(F)F)cc4)cc(C(F)(F)F)n3)cn2)cn1`, with 314 °C; and `O=C(NC[C@H]1CN(c2ccc(C3C=CS(=O)(=O)CC3)cc2)C(=O)O1)C(F)F` (stereo not given in full), with 135 to 136 °C; and `Clc1ccc2nc(N3CCN(c4c(Cl)cncc4Cl)CC3)[nH]c2c1`, with 258 to 260 °C.
`c1ccc2c(OCCNCCCc3c[nH]c4ccccc34)cccc2c1` showed a melting point of 119 to 120 °C.
Then `COc1ccnc2c1C(=O)CC(c1ccccc1)C2` (stereo not given), with 130 to 131 °C; and `CC(C)(C)c1cccc(C(C)(C)C)c1OP1OP(Oc2c(C(C)(C)C)cccc2C(C)(C)C)OP(Oc2c(C(C)(C)C)cccc2C(C)(C)C)O1` (stereo not given), with 115 to 132 °C; and `Nc1c2c(nc3ccccc13)CCc1cn(Cc3ccccc3)nc1-2`, with 206 to 207 °C.
Next, `CC(C)S(=O)(=O)c1ccc2[nH]nc(Nc3nccs3)c2c1`: 146 to 148 °C; `COc1cc(C(=O)O)ccc1Cc1cn(C)c2ccc(C(=O)NCCC(C)C)cc12`: 190 to 191 °C.
Next, `c1ccc2nc(COc3ccc(Cc4nnn[nH]4)cc3)ccc2c1`: 173 to 175 °C; `O=C(NC1(c2cccc(F)c2)CCC1)OCc1ccccc1`: 81 to 82 °C.
In the case of `Cc1ccc(-c2nnc(N3CCC(C)CC3)nc2-c2ccc(C)cc2)cc1`, the melting point is 140 to 142 °C.
Then `Nc1nc2ccccc2c2c1ncn2CCOCCCc1ncccn1`, with 126 to 127 °C; and `OC1(Cn2cncn2)CCCC1Cc1ccc(-c2ccccc2)cc1` (stereo not given), with 145 to 148 °C.
Then `CCn1ncc2c3ncn(Cc4ccccc4)c(=O)c3cnc21`, with 198 to 200 °C; and `COc1ccc(-c2sc3c(c2CN(C)Cc2ccccc2)c(=O)c(C(C)=O)cn3Cc2ccccc2F)cc1`, with 185 to 193 °C; and `COc1cc2cc(CO)nc(-c3ccnc(-n4nc(-c5cccnc5)c5ccccc5c4=O)c3)c2cc1OC`, with above 250 °C.

The record behind these values is a melting point compilation (Tetko et al.; mined from patent text by program, amines drawn as free bases though some values may be those of a salt).
